Laboratory results from US20130343993A1, “RADIOLABELED 5-HT6 LIGANDS” (AbbVie Inc., priority 2012, published 2013).
Like-named read-outs stand apart in the source and are kept apart here. One block for each compound: values may come before it.

How the values were obtained:
Rat 5-HT6 = Rat 5-HT6 (Rattus norvegicus, UniProt P31388); assay: Rat 5-HT6 binding
Rat microsome stability = format: in vitro ADME; conditions: rat microsomes, read-out: Rat microsome T1/2
h-5-HT2A receptor = target: T1, h-5-HT2A receptor (Homo sapiens, UniProt P28223); assay: 5-HT2A receptor binding assay ([125I]-DOI displacement, CHO-K1 membranes); conditions: for Selectivity for 5-HT6 v. 5-HT2A: ratio of human 5-HT2A Ki to human 5-HT6 Ki
T1 construct: purchased Perkin Elmer ES-313-M400UA; host or cells: CHO-K1
Procedure: Cells from stable clonal cell lines expressing the corresponding receptor (5-HT6, 5-HT2A or 5-HT2B receptors) were washed with PBS with 0.02% EDTA. The cells were collected by centrifugation at 500 g for 10 min. at 4° C., washed with PBS and centrifuged (500 g, 10 min. 4° C.). The pellets were stored at −80° C. until use. For membrane preparation, the thawed cell pellet was resuspended in ice-cold sucrose buffer (0.25 M sucrose, 10 mM Hepes (pH 7.4), 1 mM Phenylmethylsulfonyl fluoride (PMSF) in DMSO, […] Pepstatin-A, 3 mM EDTA, 0.025% Bacitracin) and homogenized with a Branson Sonifier W-250 (Settings: Timer 4; Output Control 3; Duty Cycle constant; 2 to 3 cycles). Cell disruption was checked with the aid of a microscope. Remaining unbroken cells were pelleted at 1,000 g for 10 min. at 4° C. The sucrose buffer supernatant was then centrifuged at 60,000 g for 1 h at 4° C. (Beckman Ultrazentrifuge XL 80). The pellet was resuspended in 30 ml ice-cold Tris buffer (20 mM TRIS (pH 7.4), […] Pepstatin A, 0.1 mM PMSF, 3 mM EDTA) by pipetting through a 10 ml serological pipet and centrifuged for 1 h at 4° C. at 60,000 g. A final resuspension was performed in a small volume of ice-cold Tris buffer (see above) by pressing through a serological pipet followed by ultrasonic treatment with a Branson Sonifier W-250 (Settings: Timer 1; Output Control 3; Duty Cycle constant; 1 cycle). Protein concentration was determined (BCA-Kit; Pierce) and aliquots stored at −80° C. or in liquid nitrogen for long-term storage.
All receptor binding experiments were carried out in the corresponding assay buffer in a total volume of 200 μl in the presence of various concentrations of test compound (10^−5 M to 10^−9 M, tenfold serial dilution, duplicate determinations). The assays were terminated by filtration on polyethylenimine (PEI 0.1% or 0.3%) presoaked Packard Unifilter Plates (GF/C or GF/B) with a Tomtec MachIII U 96well-plate harvester. After the plates had been dried for 2 h at 55° C. in a drying chamber scintillation cocktail (BetaPlate Scint; PerkinElmer) was added. Radioactivity was measured in a Microbeta Trilux two hours after the addition of the scintillation mixture. Data derived from liquid scintillation counting were analyzed by iterative non-linear regression analysis with the use of the Statistical Analysis System (SAS): a program similar to “LIGAND” as described by Munson and Rodbard (Analytical Biochemistry 107, 220-239 (1980).
CHO-K1 cell membranes expressing h-5-HT2A receptor (Perkin Elmer ES-313-M400UA) were thawed, diluted in assay buffer (50 mM Tris-HCl, 5 mM MgCl2, 1 mM EGTA, pH 7.4) to a final membrane protein concentration of 25 μg/ml and homogenized by gentle vortexing. For the competition binding studies; 20 μl of varying concentrations of test compounds in assay buffer (or 20 μl of assay buffer), 80 μl of 0.1 nM [^125I]—R—O-DOI (2,5-dimethoxy-4-iodo-amphetamine) (Perkin Elmer NEX-255) were incubated with 100 μl of homogenized membranes (total volume 200 μl). Non-specific binding was determined in the presence of 10 μM (±)-DOI (Sigma D-101). After a 1 hr incubation at room temperature, the binding reaction was harvested (Tomtec Mach III U Harvester) through 96-well GF/C filter plates (Perkin Elmer) presoaked for 1 hr with 20 μl per well of 0.3% polyethylene-imine (PEI). Harvested plates were washed twice with ice-cold assay buffer and dried prior to addition of 35 μl scintillator (BetaplateScint, Perkin Elmer). The radioactivity was determined by liquid scintillation spectrometry in a MicroBeta (Perkin Elmer) plate counter.
Data derived from liquid scintillation counting were analyzed by iterative non-linear regression analysis with the use of the Statistical Analysis System (SAS): a program similar to “LIGAND” as described by Munson and Rodbard (Anal. Biochem. 1980, 107, 220-239). Fitting was performed according to formulae described by Feldman (Anal. Biochem. 1972, 48, 317-338). […]

h-5-HT6 receptor = target: T2, h-5-HT6 receptor (Homo sapiens, UniProt P50406); assay: 5-HT6 receptor binding assay ([3H]-LSD displacement, HEK293 membranes)
T2 construct: expressed in transfected cells
Procedure: The cells were collected by centrifugation at 500 g for 10 min. at 4° C., washed with PBS and centrifuged (500 g, 10 min. 4° C.). The pellets were stored at −80° C. until use. For membrane preparation, the thawed cell pellet was resuspended in ice-cold sucrose buffer (0.25 M sucrose, 10 mM Hepes (pH 7.4), 1 mM Phenylmethylsulfonyl fluoride (PMSF) in DMSO, […] Pepstatin-A, 3 mM EDTA, 0.025% Bacitracin) and homogenized with a Branson Sonifier W-250 (Settings: Timer 4; Output Control 3; Duty Cycle constant; 2 to 3 cycles). Cell disruption was checked with the aid of a microscope. Remaining unbroken cells were pelleted at 1,000 g for 10 min. at 4° C. […] Protein concentration was determined (BCA-Kit; Pierce) and aliquots stored at −80° C. or in liquid nitrogen for long-term storage.
(§1) All receptor binding experiments were carried out in the corresponding assay buffer in a total volume of 200 μl in the presence of various concentrations of test compound (10^−5 M to 10^−9 M, tenfold serial dilution, duplicate determinations). […] Radioactivity was measured in a Microbeta Trilux two hours after the addition of the scintillation mixture. […]
Data derived from liquid scintillation counting were analyzed by iterative non-linear regression analysis with the use of the Statistical Analysis System (SAS): a program similar to “LIGAND” as described by Munson and Rodbard (Anal. Biochem. 1980, 107, 220-239). […]

5-HT2a = 5-HT2a (Homo sapiens, UniProt P28223); conditions: background statement on the known PET ligand; cited from earlier work
h-5-HT2B receptor = target: T3, h-5-HT2B receptor (Homo sapiens, UniProt P41595); assay: 5-HT2B receptor binding assay ([125I]-DOI displacement, CHO-K1 membranes)
T3 construct: purchased Perkin Elmer ES-314-M400UA; host or cells: CHO-K1
Procedure: Cells from stable clonal cell lines expressing the corresponding receptor (5-HT6, 5-HT2A or 5-HT2B receptors) were washed with PBS with 0.02% EDTA. The cells were collected by centrifugation at 500 g for 10 min. at 4° C., washed with PBS and centrifuged (500 g, 10 min. 4° C.). The pellets were stored at −80° C. until use. For membrane preparation, the thawed cell pellet was resuspended in ice-cold sucrose buffer (0.25 M sucrose, 10 mM Hepes (pH 7.4), 1 mM Phenylmethylsulfonyl fluoride (PMSF) in DMSO, […] Pepstatin-A, 3 mM EDTA, 0.025% Bacitracin) and homogenized with a Branson Sonifier W-250 (Settings: Timer 4; Output Control 3; Duty Cycle constant; 2 to 3 cycles). Cell disruption was checked with the aid of a microscope. Remaining unbroken cells were pelleted at 1,000 g for 10 min. at 4° C. The sucrose buffer supernatant was then centrifuged at 60,000 g for 1 h at 4° C. (Beckman Ultrazentrifuge XL 80). […] Protein concentration was determined (BCA-Kit; Pierce) and aliquots stored at −80° C. or in liquid nitrogen for long-term storage.
as §1

[1] = target: 78 targets (CEREP) other than the 5-HT6 receptor; assay: CEREP panel of 78 targets; format: binding; conditions: all but the 5-HT2B and 5-HT2A receptors, read-out: Ki at ancillary targets
[2] = Rat PK (0.05 mg/kg, iv), plasma and brain levels; format: in vivo; conditions: for Free B/P Ratio: free brain concentration divided by free plasma concentration

T1 sequence (P28223 whole entry): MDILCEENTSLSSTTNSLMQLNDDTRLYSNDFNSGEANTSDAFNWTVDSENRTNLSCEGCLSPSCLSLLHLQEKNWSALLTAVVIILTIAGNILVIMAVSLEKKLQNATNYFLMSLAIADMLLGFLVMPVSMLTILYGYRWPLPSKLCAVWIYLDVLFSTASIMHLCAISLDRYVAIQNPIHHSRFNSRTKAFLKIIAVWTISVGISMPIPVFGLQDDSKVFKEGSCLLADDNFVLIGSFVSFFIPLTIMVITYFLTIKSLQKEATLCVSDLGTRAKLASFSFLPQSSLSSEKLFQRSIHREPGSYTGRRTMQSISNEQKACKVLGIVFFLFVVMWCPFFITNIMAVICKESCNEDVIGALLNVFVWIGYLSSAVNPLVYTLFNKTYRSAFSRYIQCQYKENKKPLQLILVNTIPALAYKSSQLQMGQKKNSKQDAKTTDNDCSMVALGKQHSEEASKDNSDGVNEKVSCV
T2 sequence (P50406 whole entry): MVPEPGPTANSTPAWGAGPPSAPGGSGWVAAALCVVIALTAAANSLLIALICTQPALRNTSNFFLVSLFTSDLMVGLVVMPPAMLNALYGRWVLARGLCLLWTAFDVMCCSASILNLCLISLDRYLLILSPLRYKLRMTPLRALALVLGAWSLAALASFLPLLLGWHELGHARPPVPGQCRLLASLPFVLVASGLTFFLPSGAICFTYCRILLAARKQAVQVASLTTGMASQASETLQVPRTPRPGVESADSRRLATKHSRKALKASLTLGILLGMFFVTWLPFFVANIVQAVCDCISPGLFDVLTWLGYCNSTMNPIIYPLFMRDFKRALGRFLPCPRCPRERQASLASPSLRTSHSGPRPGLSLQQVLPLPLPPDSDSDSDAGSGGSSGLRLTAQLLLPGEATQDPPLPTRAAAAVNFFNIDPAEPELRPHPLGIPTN
T3 sequence (P41595 whole entry): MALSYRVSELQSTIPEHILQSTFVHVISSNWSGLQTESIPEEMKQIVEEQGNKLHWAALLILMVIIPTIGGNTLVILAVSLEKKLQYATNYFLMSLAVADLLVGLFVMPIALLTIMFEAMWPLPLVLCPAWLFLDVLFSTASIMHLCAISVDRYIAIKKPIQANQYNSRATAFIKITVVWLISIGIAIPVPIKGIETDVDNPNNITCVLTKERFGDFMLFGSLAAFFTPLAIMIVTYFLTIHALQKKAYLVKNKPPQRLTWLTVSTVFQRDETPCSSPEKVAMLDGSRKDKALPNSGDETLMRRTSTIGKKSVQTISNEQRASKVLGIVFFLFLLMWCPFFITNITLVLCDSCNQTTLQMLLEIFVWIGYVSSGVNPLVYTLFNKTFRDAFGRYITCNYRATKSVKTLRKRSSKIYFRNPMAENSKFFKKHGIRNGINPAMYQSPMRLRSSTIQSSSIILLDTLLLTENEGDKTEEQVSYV
Chain of Rat 5-HT6 (P31388 whole entry): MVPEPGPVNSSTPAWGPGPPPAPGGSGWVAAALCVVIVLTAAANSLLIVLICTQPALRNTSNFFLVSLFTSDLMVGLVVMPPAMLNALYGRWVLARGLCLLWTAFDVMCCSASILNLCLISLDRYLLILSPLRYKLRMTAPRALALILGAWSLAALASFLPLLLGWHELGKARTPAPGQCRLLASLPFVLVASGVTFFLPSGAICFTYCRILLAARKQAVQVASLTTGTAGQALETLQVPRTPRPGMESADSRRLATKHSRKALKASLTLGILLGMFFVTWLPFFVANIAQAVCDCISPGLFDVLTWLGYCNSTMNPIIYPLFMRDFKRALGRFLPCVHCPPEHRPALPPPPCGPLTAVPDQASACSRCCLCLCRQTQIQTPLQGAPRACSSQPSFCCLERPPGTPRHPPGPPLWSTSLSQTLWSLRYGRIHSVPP
Chain of 5-HT2a (P28223 whole entry): as the sequence (P28223 whole entry) above

SMILES: CN1CCN(c2cccc3cc(S(=O)(=O)c4cccc(F)c4)cnc23)CC1 [GSK-215083, reference compound]
Ki (Rat 5-HT6): 0.16 nM
half-life (Rat microsome stability): 1.04 h
Ki (h-5-HT2A receptor): 0.395 nM
selectivity for 5-HT6 over 5-HT2A (h-5-HT2A receptor): 1.16 fold
Selectivity for 5-HT6 v. 5-HT2A (h-5-HT2A receptor): 1.16 x
Ki (h-5-HT6 receptor): 0.34 nM

SMILES: CN1CCN(c2cccc3cc(S(=O)(=O)c4cccc(F)c4)cnc23)CC1 [[^11C]GSK-215083]
Ki (5-HT2a): 0.395 nM

SMILES: [3H]C([3H])([3H])N1CCC(c2cccc3cc(S(=O)(=O)c4ccccn4)cnc23)CC1 [Example 2, 8-(1-([^3H]methyl)piperidin-4-yl)-3-(pyridin-2-ylsulfonyl)quinoline]
F. Cortex/Cer. (5 min after dose): 0.9
Hippo./Cer. (5 min after dose): 1.06
Striatum/Cer. (5 min after dose): 0.81
F. Cortex/Cer. (40 min after dose): 1.20
Hippo./Cer. (40 min after dose): 1.07
Striatum/Cer. (40 min after dose): 1.31

Ki (h-5-HT2B receptor): 144 nM
selectivity for 5-HT6 over 5-HT2B (h-5-HT2B receptor): 654.5 fold
Ki [1]: > 1000 nM
half-life (Rat microsome stability): 1.73 h
Ki (h-5-HT2A receptor): 123 nM
selectivity for 5-HT6 over 5-HT2A (h-5-HT2A receptor): 559 fold
Selectivity for 5-HT6 v. 5-HT2A (h-5-HT2A receptor): 559 x
Free [brain] ([2]; 3 min after dose): 21.5 ng/g
Plasma Conc. ([2]; 3 min after dose): 104.5 ng/mL
Free B/P Ratio ([2]; 3 min after dose): 0.21
Free [brain] ([2]; 5 min after dose): 23.1 ng/g
Plasma Conc. ([2]; 5 min after dose): 83.5 ng/mL
Free B/P Ratio ([2]; 5 min after dose): 0.28
Ki (h-5-HT6 receptor): 0.22 nM
SMILES: CN1CCC(c2cccc3cc(S(=O)(=O)c4ccccn4)cnc23)CC1 [Example 1, 8-(1-methylpiperidin-4-yl)-3-(pyridin-2-ylsulfonyl)quinoline]
